According to US20200390689A1, “CERDULATINIB-CONTAINING TOPICAL SKIN PHARMACEUTICAL COMPOSITIONS AND USES THEREOF” (Dermavant Sciences GmbH, priority 2018, published 2020):
Like-named read-outs stand apart in the source and are kept apart here.

Tests used:
[1] = molecular target: T1, Syk (Homo sapiens, UniProt P43405); test: DiscoveRx cellular platform, Syk; format: cell-based
T1 construct: DiscoveRx

[2] = system: IL-6 (JAK1/2/Tyk2) STAT3 Y705 phosphorylation; test: IL-6 stimulated STAT3 Y705 phosphorylation in human whole blood; format: cell-based; conditions: Monocyte, monocytes
From the text: (§1) To evaluate downstream signaling following cytokine stimulation, human whole blood was stimulated with IL-2 (JAK1/3-mediated signaling), which results in phosphorylation of STAT5 at tyrosine residue 694 (Y694). […] IL-6 (JAK1/2/Tyk2) stimulation leads to STAT3 Y705 phosphorylation in monocytes.

[3] = molecular target: JAK1 (Homo sapiens, UniProt P23458); test: cell-based
[4] = molecular target: JAK2 (Homo sapiens, UniProt O60674); test: cell-based
[5] = system: vitiligo; test: Study DMVT-502-9025, mouse model of vitiligo; format: in vivo
Protocol: The model mimics human vitiligo by inducing epidermal depigmentation with autoreactive CD8+ T-cell accumulation. A schematic of the model is depicted in FIG. 15. […] Ten mice were used in the study: three REX3 reporter mice for cytokines CXCL9 and CXCL10 and seven SCF (stem cell factor) mice. The vitiligo study timeline is depicted in FIG. 16. The following assessments were performed during the study: • Blinded scoring of ears, tail, nose, and ventral feet (0-5 scale) • Epidermal, dermal, spleen, and lymph node PMEL (premelanosome protein) cell count • Epidermal/dermal APC (antigen-presenting cell) count • Keratinocyte cytokine expression

[6] = system: IL-4-mediated upregulation of CD23 and CD25 on monocytes; test: IL-4-mediated upregulation of cell surface markers CD23 and CD25 on monocytes; format: cell-based; conditions: Homo sapiens, Monocyte
[7] = system: monocyte differentiation into immature DCs; test: IL-4/GM-CSF-mediated monocyte differentiation to immature dendritic cells (flow cytometry); format: cell-based; conditions: Homo sapiens, 120 h, purified monocytes, CD1a expression after five days
Protocol: Dendritic cells (DCs) are important antigen presenting cells that play an integral role in mediating inflammatory skin diseases. A subset of DCs are derived from monocytes and this differentiation is driven by IL-4/GM-CSF co-stimulation. The ability of DMVT-502 to disrupt the signaling responsible for monocyte differentiation into immature DCs was assessed by flow cytometry. […] Five days later, cells were stained for CD14 (monocyte marker) and CD1a (immature dendritic cell marker) and assessed for immature DC differentiation.

[8] = system: IL-4 (JAK1/3-mediated) STAT6 Y641 phosphorylation; test: IL-4 stimulated STAT6 Y641 phosphorylation in human whole blood; format: cell-based
From the text: as §1

[9] = system: IL-2 (JAK1/3-mediated signaling) STAT5 Y694 phosphorylation; test: IL-2 stimulated STAT5 Y694 phosphorylation in human whole blood; format: cell-based
From the text: as §1

[10] = system: GM-CSF (JAK2-mediated) STAT5 Y694 phosphorylation; test: GM-CSF stimulated STAT5 Y694 phosphorylation in human whole blood; format: cell-based; conditions: Monocyte, monocytes, read-out: IC50, GM-CSF induced STAT5 Y694 phosphorylation
[11] = system: DNCB-induced atopic dermatitis; test: DNCB-induced atopic dermatitis in the NC/Nga mouse model; format: in vivo
Protocol: Atopic dermatitis was induced by repeated application of DNCB (1-chloro-2,4-dinitrobenzene) to the dorsal skin of the ears/back. […] Lesions were evaluated on days 2, 8, 11, and 14.
Macroscopic lesion severity scores are depicted in FIG. 7. Macroscopic skin lesion severity was measured on the indicated Study Days by assessing (0-3 scale) the presence of erythema, edema, excoriation/erosion, and dryness scaling on the ears, neck, and dorsal skin of animals.
Serum IgE levels are depicted in FIG. 8. Serum samples obtained on Study Day 15 were utilized for IgE quantitation. Select cytokine data from the study are depicted in FIG. 9. Skin samples harvested on Day 15 were analyzed by LUMINEX for inflammatory cytokine levels for IL-4, IL-5, IL-13, and IL-31.

[12] = system: JAK1/JAK3-dependent signaling pathways; test: Cytokine-mediated STAT phosphorylation in peripheral blood mononuclear cells (phospho-flow cytometry); format: cell-based; conditions: Homo sapiens; PBMC; T cells and monocytes
[13] = molecular target: T2, Tyk2 (Homo sapiens, UniProt P29597); test: DiscoveRx cellular platform, Tyk2; format: cell-based
T2 construct: DiscoveRx

[14] = 30 and 60 mg/kg oral, vs vehicle

Chain of JAK2 (O60674 whole entry): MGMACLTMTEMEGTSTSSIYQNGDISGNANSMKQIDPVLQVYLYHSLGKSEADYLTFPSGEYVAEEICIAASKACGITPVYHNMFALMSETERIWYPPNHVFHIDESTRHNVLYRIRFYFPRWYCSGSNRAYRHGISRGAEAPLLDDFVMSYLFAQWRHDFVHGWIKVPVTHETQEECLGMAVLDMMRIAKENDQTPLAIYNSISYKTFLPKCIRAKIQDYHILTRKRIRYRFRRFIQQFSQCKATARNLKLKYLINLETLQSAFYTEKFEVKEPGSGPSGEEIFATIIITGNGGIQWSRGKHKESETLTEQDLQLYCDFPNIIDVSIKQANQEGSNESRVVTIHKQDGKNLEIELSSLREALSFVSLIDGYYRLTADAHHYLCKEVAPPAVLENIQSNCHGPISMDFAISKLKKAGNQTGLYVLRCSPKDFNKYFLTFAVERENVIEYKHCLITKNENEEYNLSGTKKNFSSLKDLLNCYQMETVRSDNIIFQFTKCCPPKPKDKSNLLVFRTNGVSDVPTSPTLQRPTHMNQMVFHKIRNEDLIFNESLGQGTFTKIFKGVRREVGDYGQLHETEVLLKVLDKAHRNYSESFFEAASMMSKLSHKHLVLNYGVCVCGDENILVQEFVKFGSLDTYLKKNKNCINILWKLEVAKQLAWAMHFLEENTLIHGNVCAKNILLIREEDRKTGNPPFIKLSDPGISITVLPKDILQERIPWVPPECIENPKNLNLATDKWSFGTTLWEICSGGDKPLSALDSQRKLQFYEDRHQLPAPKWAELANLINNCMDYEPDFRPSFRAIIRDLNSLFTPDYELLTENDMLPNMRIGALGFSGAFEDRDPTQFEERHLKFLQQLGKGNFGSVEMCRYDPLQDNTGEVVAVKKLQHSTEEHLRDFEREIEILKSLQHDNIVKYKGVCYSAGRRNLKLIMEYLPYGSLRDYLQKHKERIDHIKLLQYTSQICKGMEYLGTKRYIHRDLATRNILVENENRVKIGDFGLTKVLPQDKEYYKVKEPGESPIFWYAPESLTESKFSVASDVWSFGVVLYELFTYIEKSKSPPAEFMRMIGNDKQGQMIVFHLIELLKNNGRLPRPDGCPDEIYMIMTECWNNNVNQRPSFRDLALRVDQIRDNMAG
T2 sequence (P29597 whole entry): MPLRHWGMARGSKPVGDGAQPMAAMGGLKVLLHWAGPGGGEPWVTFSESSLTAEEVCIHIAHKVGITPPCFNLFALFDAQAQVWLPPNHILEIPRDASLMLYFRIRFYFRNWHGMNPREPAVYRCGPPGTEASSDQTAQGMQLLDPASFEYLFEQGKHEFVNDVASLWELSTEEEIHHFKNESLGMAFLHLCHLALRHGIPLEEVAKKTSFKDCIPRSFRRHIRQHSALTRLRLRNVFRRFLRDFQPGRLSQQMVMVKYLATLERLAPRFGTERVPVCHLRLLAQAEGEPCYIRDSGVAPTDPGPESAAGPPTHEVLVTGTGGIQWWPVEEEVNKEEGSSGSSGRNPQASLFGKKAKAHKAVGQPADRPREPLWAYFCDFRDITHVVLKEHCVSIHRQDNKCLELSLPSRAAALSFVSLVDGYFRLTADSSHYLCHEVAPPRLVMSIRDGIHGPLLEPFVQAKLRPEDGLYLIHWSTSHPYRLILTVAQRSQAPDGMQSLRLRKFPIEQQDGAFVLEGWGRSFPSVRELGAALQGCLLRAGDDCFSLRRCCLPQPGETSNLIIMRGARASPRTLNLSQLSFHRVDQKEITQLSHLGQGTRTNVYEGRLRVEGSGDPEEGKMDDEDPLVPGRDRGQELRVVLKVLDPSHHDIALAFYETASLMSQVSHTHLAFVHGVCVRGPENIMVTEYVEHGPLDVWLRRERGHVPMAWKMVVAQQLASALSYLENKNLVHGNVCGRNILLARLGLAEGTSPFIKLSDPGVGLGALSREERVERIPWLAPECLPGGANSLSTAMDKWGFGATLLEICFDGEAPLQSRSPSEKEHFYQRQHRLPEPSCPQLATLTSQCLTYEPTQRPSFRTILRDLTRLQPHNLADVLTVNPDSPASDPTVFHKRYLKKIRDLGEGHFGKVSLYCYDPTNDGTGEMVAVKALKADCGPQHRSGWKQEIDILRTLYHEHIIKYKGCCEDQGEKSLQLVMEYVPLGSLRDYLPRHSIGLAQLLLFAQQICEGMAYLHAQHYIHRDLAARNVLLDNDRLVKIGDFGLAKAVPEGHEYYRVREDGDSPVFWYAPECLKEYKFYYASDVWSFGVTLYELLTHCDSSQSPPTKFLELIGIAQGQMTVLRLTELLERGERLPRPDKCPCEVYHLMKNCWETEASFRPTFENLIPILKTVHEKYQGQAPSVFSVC
Chain of JAK1 (P23458 whole entry): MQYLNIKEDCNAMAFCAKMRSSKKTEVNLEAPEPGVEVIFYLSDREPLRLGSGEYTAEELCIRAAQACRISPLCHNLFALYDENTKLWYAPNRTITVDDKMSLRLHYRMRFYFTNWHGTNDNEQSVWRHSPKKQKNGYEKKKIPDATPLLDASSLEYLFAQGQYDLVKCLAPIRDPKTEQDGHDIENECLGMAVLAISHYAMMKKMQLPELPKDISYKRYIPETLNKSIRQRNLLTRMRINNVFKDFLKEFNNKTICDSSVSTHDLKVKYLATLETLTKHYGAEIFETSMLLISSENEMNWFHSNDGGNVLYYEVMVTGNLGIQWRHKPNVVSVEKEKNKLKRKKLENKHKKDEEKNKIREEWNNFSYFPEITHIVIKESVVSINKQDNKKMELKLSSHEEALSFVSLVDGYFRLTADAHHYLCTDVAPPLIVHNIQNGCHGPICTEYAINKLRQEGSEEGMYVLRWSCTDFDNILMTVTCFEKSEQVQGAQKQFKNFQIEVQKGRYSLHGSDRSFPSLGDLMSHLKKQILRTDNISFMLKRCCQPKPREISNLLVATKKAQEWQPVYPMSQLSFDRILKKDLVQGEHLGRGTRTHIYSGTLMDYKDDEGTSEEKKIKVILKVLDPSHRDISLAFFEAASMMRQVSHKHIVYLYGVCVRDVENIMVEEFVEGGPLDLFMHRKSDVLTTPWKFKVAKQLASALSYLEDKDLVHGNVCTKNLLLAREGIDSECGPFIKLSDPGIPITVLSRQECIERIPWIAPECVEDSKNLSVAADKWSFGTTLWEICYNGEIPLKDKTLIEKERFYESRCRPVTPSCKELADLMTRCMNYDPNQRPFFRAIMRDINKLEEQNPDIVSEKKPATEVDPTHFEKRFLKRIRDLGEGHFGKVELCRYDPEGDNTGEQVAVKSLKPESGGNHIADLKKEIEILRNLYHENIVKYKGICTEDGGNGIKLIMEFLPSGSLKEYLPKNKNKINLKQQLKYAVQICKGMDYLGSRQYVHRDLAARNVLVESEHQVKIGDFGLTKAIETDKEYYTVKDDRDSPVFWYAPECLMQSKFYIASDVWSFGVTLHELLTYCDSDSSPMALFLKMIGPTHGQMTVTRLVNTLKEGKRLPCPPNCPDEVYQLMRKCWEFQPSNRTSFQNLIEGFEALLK

CCS(=O)(=O)N1CCN(c2ccc(Nc3ncc(C(N)=O)c(NC4CC4)n3)cc2)CC1 [DMVT-502, Cerdulatinib]
IC50 [1]: 1280 nM | IC50 [2]: 260 nM | IC50 [3]: 98 nM | IC50 [4]: 4860 nM | CD3+, CD8− T-cell counts in the spleen ([5]; 60 mg/kg oral): significantly reduced | Host T-cell counts in blood ([5]; 60 mg/kg oral): significantly decreased | PMEL T-cell counts in dermis and blood ([5]; 60 mg/kg oral): significantly reduced | APCs in the dermal skin compartment and Langerhans cells in the epidermal skin compartment ([5]; 60 mg/kg oral, vs vehicle): significantly reduced | Vitiligo scores ([5]; 30 and 60 mg/kg once daily oral, 5 weeks, vs vehicle): significantly decreased | Host-derived total T-cell counts in the spleen ([5]; 30 and 60 mg/kg oral): significantly reduced | APC counts in lymph nodes and the spleen [5, 14]: significantly reduced | PMEL T-cell counts in the epidermis and dermis [5, 14]: significantly reduced | CXCL9 and CXCL10 expression in lymph node APCs ([5]; 30 or 60 mg/kg oral): Reduced | Lymph node or spleen PMEL T cells ([5]; 30 or 60 mg/kg oral): no significant differences | CXCL9, CXCL10, and dual expression in keratinocytes ([5]; SCF/REX3 mice, vs vehicle): trends towards reduced | Total keratinocyte counts ([5]; between treatment groups): No decrease | IC50 ([6]; read-out: IC50, IL-4-mediated upregulation of CD23): 230 nM | IC50 ([6]; read-out: IC50, IL-4-mediated upregulation of CD25): 420 nM | IC50 [7]: ~100 nM | IC50 ([8]; B-cell, CD19+ B cells): 920 nM | IC50 ([8]; CD4+ T cells): 580 nM | IC50 ([8]; Monocyte, CD14+ monocytes): 998 nM | IC50 ([8]; T-cell, CD8+ T cells): 330 nM | IC50 ([9]; CD4+ T cells): 300 nM | IC50 ([9]; T-cell, CD8+ T cells): 160 nM | IC50 [10]: ~4000 nM | Pro-inflammatory cytokine levels in skin ([11]; Day 15, topical treatment): limited suppression | Serum IgE levels ([11]; Study Day 15, topical therapy): trends towards reduction | IC50 [12]: < 200 nM | IC50 [13]: 1720 nM
